Measurements published in patent US20260226085A1, “HETEROCYCLIC COMPOUNDS AS WRN INHIBITORS” (Synnovation Therapeutics, Inc., priority 2023, published 2026).

The compounds below were run on SW48 colorectal cancer cells (assay: Cell-Titer Glo measurement of growth-inhibitory activity in SW48 cells). Conditions: Homo sapiens, 120 h, cell viability on day 5, Cell-titer Glo, baseline subtracted, 4PL fit, read-out: SW48_GI50.
Type: cell-based
Experimental: Example A. Cell-Titer Glo Measurement of Growth-Inhibitory Activity in SW48 Cells
This cell-based assay measures growth-inhibitory activity of selected WRN inhibitors in SW48 colorectal cancer cells. SW48 cell line (#CCL-231) was purchased from American type culture collection (ATCC). Cells were cultured following ATCC instructions. The base medium for this cell line is ATCC-formulated Leibovitz's L-15 Medium (#30-2008). To prepare complete medium, fetal bovine serum was added at a final concentration of 10%. Antibiotics including penicillin and streptomycin (#SV30010) were purchased from Cytiva and added into complete medium to prevent bacteria contamination. Cells with a passage number of below 20 were used in this cell-based assay. One day before the assay, cells were resuspended in complete medium and seeded into 96-well plates at a final density of 2000 cells per well. One extra plate was added to measure baseline viability on day 1 before compound treatment. Baseline cell viability was measured using Promega Cell-titer Glo reagent (#G7573) following the protocol provided by the manufacture. Compounds were dissolved in DMSO at a stock concentration of 10 mmol/L. Three-fold serial dilution was performed using DMSO to prepare master plates. Compounds were further diluted using complete medium and added into assay plates. The final concentration of DMSO was 0.2% in assay plates. Cell viability was measured on day 5 using Promega Cell-titer Glo reagent following the same protocol provided by the manufacture. Assay plates were kept on orbital shaker (300 rounds per min) for 2 min and then kept in 37° C. incubator for another 10 minutes. Cell-titer Glo luminescence signal was measured using i3x plate reader. Baseline cell viability was subtracted for growth inhibition 50 (GI50) estimate using GraphPad Prism following the four-parameter logistic (4PL) curve-fitting mathematical model.

`CCc1c(N2CCN(C(=O)c3c(O)ccc4cccnc34)CC2)c(=O)n2nc(C3=CCOCC3)nc2n1CC(=O)Nc1ccc(C(F)(F)F)cc1Cl` [Example 5, N-[2-chloro-4-(trifluoromethyl)phenyl]-2-[2-(3,6-dihydro-2H-pyran-4-yl)-5-ethyl-6-[4-(7-hydroxyquinoline-8-carbonyl)piperazin-1-yl]-7-oxo-[1,2,4]triazolo[1,5-a]pyrimidin-4-yl]acetamide] was tested. Which GI50 did it give?
The GI50 was < 0.1 µM.

Which GI50 does the source give for `CCc1c(N2CCN(C(=O)c3c(O)ccc4cccnc34)CC2)c(=O)n2nc(-c3ccc(S(C)(=O)=O)cc3)nc2n1CC(=O)Nc1ccc(C(F)(F)F)cc1Cl` [Example 8, N-(2-Chloro-4-(trifluoromethyl)phenyl)-2-(5-ethyl-6-(4-(7-hydroxyquinoline-8-carbonyl)piperazin-1-yl)-2-(4-(methylsulfonyl)phenyl)-7-oxo-[1,2,4]triazolo[1,5-a]pyrimidin-4(7H)-yl)acetamide] here?
The GI50 was < 0.1 µM.

Which GI50 does the source give for `CCc1c(N2CCN(Cc3ncccc3O)CC2)c(=O)n2nc(-c3ccc(S(C)(=O)=O)cc3)nc2n1CC(=O)Nc1ccc(C(F)(F)F)cc1Cl` [Example 9, N-(2-Chloro-4-(trifluoromethyl)phenyl)-2-(5-ethyl-6-(4-((3-hydroxypyridin-2-yl)methyl)piperazin-1-yl)-2-(4-(methylsulfonyl)phenyl)-7-oxo-[1,2,4]triazolo[1,5-a]pyrimidin-4(7H)-yl)acetamide] here?
Its GI50 is 0.1 to 1 µM.

`CCc1c(N2CCN(Cc3ncccc3O)CC2)c(=O)n2nc(-c3ccc(P(C)(C)=O)cc3)nc2n1CC(=O)Nc1ccc(C(F)(F)F)cc1Cl` [Example 10, N-(2-Chloro-4-(trifluoromethyl)phenyl)-2-(2-(4-(dimethylphosphoryl)phenyl)-5-ethyl-6-(4-((3-hydroxypyridin-2-yl)methyl)piperazin-1-yl)-7-oxo-[1,2,4]triazolo[1,5-a]pyrimidin-4(7H)-yl)acetamide] was tested. Which GI50 did it give?
Its GI50 is < 0.1 µM.

For `CCc1c(N2CCN(C(=O)c3ncc4ccccc4c3O)CC2)c(=O)n2nc(C3=CCOCC3)nc2n1CC(=O)Nc1ccc(C(F)(F)F)cc1Cl` [Example 1, N-[2-Chloro-4-(trifluoromethyl)phenyl]-2-[2-(3,6-dihydro-2H-pyran-4-yl)-5-ethyl-6-[4-(4-hydroxyisoquinoline-3-carbonyl)piperazin-1-yl]-7-oxo-[1,2,4]triazolo[1,5-a]pyrimidin-4-yl]acetamide], which GI50 is on record?
Its GI50 is < 0.1 µM.

Which GI50 does the source give for `CCc1c(N2CCN(C(=O)c3c(O)ccc4cccnc34)CC2)c(=O)n2nc(N3CCC4(CCCO4)CC3)nc2n1CC(=O)Nc1ccc(C(F)(F)F)cc1Cl` [Example 6, N-(2-chloro-4-(trifluoromethyl)phenyl)-2-(5-ethyl-6-(4-(7-hydroxyquinoline-8-carbonyl)piperazin-1-yl)-7-oxo-2-(1-oxa-8-azaspiro[4.5]decan-8-yl)-[1,2,4]triazolo[1,5-a]pyrimidin-4(7H)-yl)acetamide] here?
Its GI50 is 0.1 to 1 µM.

For `CCc1c(N2CCN(C(=O)c3nc4ccccc4cc3O)CC2)c(=O)n2nc(C3=CCOCC3)nc2n1CC(=O)Nc1ccc(C(F)(F)F)cc1Cl` [Example 2, N-[2-Chloro-4-(trifluoromethyl)phenyl]-2-[2-(3,6-dihydro-2H-pyran-4-yl)-5-ethyl-6-[4-(3-hydroxyquinoline-2-carbonyl)piperazin-1-yl]-7-oxo-[1,2,4]triazolo[1,5-a]pyrimidin-4-yl]acetamide], which GI50 is on record?
Its GI50 is < 0.1 µM.

Which GI50 does the source give for `CCc1c(N2CCN(Cc3ncccc3O)CC2)c(=O)n2nc(C3=CCOCC3)nc2n1CC(=O)Nc1ccc(C(F)(F)F)cc1Cl` [Example 4, N-[2-chloro-4-(trifluoromethyl)phenyl]-2-[2-(3,6-dihydro-2H-pyran-4-yl)-5-ethyl-6-[4-[(3-hydroxy-2-pyridyl)methyl]piperazin-1-yl]-7-oxo-[1,2,4]triazolo[1,5-a]pyrimidin-4-yl]acetamide] here?
The GI50 was 0.1 to 1 µM.

Which GI50 does the source give for `CCc1c(N2CCN(Cc3ncccc3O)CC2)c(=O)n2nc(N3CCC4(CCCO4)CC3)nc2n1CC(=O)Nc1ccc(C(F)(F)F)cc1Cl` [Example 7, N-(2-chloro-4-(trifluoromethyl)phenyl)-2-(5-ethyl-6-(4-((3-hydroxypyridin-2-yl)methyl)piperazin-1-yl)-7-oxo-2-(1-oxa-8-azaspiro[4.5]decan-8-yl)-[1,2,4]triazolo[1,5-a]pyrimidin-4(7H)-yl)acetamide] here?
The GI50 was 1 to 5 µM.
